Experimental data published in EP4711367A1, “PYRAZOLOPYRAZINE COMPOUND AND METHOD FOR PREPARING CRYSTAL FORM THEREOF” (CMS Research & Development Pte. Ltd., priority 2023, dated 2024).

Columns and labels:
paw swelling = experiment: Paw swelling and scores in mice after oral administration (only summarised, no method given); type: in vivo
JAK3(h) = target: T1, JAK3(h) (Homo sapiens, UniProt P52333); experiment: In vitro activity test of JAK3 kinase ([γ-33P]-ATP filter assay, Eurofins); type: biochemical
T1 construct: purchased Eurofins (UK)
T1 sequence (P52333 1-1124): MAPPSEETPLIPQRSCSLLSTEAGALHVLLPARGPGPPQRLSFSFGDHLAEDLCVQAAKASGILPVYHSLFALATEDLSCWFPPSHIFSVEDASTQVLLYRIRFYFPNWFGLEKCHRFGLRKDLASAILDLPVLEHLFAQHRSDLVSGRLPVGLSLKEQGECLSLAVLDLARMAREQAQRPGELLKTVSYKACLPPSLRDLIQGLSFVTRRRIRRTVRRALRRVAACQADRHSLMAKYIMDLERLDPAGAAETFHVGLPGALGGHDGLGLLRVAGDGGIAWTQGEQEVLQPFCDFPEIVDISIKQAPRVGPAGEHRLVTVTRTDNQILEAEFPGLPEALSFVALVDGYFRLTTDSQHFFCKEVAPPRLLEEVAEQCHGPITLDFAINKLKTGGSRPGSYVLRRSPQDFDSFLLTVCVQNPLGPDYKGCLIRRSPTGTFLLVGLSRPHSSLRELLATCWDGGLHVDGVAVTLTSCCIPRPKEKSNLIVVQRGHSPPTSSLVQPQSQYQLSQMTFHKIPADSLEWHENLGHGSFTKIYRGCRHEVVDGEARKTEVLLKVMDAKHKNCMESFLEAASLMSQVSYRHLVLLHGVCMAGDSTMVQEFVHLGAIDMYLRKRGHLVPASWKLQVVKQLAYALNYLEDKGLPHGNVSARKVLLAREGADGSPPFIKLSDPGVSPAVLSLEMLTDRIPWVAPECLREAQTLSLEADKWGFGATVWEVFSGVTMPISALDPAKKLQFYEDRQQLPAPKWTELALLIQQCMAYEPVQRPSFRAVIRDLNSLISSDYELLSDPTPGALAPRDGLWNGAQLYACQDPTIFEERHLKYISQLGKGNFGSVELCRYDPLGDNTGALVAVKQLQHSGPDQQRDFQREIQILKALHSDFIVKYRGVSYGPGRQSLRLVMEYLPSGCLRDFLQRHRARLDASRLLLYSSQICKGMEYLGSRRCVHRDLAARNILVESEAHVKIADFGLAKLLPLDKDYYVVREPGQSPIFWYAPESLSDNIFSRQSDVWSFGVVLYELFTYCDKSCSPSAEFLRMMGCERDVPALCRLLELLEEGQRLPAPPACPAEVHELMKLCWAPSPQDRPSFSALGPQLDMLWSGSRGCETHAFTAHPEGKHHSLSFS
Description: Recombinant human JAK1, JAK2, JAK3, and Tyk2 proteases, along with major instruments and reagents, were provided by Eurofins in the UK. JAK2, JAK3, and TYK2 were diluted with: 20 mM 3-(N-morpholino)propanesulfonic acid (MOPS), 1 mM EDTA, 0.01% Brij-35.5% glycerol, 0.1% β-mercaptoethanol, 1 mg/mL BSA; JAK1 was diluted with: 20 mM TRIS, 0.2 mM EDTA, 0.1% β-mercaptoethanol, 0.01% Brij-35.5% glycerol. The compound of formula (I) was prepared as a 100% DMSO solution and diluted to 50 times the final assay concentration. The test compound was subjected to a 3-fold serial dilution, with final concentrations ranging from 10 µM to 0.001 µM across 9 concentrations, and the DMSO content in the detection reaction was 2%. The working stock solution of this compound was added as the first component of the reaction to the assay wells, followed by the addition of the remaining components according to the protocol detailed below. JAK3(h) was incubated with 8 mM MOPS pH 7.0, 0.2 mM EDTA, 500 µM GGEEEEYFELVKKKK, 10 mM magnesium acetate, and [γ-^33P]-ATP (activity and concentration were adjusted as needed). The reaction was initiated by adding the Mg/ATP mixture and incubated at room temperature for 40 minutes, then terminated by adding 0.5% phosphoric acid. […] The IC50 results were analyzed using XLFIT5 (205 formula) from IDBS, as detailed in Table 12. […]

Cn1cc(-c2cn3nccc3c(-c3cnn([C@]4(CC#N)CC5(C[C@H](C#N)C5)C4)c3)n2)cn1 (stereo partly shown) [Compound of formula (I)]
degree of paw swelling (in words) (paw swelling): significantly improve | effect on animal body weight (in words) (paw swelling): no significant effect | scores and relative scores (in words) (paw swelling): ameliorate | IC50 (JAK3(h)): 189 nM
